PubChem BioAssay AID651650 (Sanford-Burnham Center for Chemical Genomics, 2012)
Activity calls are given as the source filed them.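 The calls were made as follows: active = mean IC50 below 20 µM in each of the two panels, so potent in both; inactive = the rest.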

Molecular target: Neuropilin-1 (Homo sapiens) (UniProt O14786)
Assay: NRP-1 b1b2 CendR peptide binding inhibitors, dose response, biochemical, FP and AlphaScreen panel (AID 651650)
Conditions: NRP-1 b1b2 / RPARPAR peptide binding, FP or AlphaScreen
[1] = AlphaScreen, run 1, individual panel run IC50
[2] = FP, run 1, individual panel run IC50
[3] = FP, run 2, individual panel run IC50

Neuropilin-1 (Homo sapiens), sequence (O14786 whole entry, looked up): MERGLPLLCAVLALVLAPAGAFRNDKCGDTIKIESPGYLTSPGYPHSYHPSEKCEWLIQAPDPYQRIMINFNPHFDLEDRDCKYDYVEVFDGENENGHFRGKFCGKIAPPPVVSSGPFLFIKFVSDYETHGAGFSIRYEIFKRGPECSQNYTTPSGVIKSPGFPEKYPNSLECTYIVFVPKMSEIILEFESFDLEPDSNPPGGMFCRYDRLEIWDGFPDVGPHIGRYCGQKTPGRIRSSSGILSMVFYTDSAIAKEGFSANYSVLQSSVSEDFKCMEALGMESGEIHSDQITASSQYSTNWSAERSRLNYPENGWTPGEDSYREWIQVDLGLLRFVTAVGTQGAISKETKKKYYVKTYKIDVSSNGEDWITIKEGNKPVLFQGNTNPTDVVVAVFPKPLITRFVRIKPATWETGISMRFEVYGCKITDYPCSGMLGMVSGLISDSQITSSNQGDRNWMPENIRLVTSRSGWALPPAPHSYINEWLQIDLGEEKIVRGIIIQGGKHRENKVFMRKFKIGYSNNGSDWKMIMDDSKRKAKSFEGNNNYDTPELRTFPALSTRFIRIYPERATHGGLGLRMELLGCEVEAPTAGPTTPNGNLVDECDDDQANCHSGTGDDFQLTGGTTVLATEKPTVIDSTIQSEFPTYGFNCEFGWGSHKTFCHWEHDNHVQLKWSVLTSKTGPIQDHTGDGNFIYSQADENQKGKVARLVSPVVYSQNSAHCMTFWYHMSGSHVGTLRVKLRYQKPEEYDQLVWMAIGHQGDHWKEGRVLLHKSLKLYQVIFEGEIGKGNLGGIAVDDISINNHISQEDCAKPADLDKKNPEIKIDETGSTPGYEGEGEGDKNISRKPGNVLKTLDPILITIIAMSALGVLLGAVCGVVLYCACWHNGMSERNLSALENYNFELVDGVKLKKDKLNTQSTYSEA

Structure (SMILES) | IC50 (AlphaScreen, mean of runs) | IC50 [1] [µM] | IC50 (FP, mean of runs) | IC50 [2] [µM] | IC50 [3] [µM]
Cc1ccc(OCC(=O)Nc2ccc(C)c(S(=O)(=O)N3CCCCCC3)c2)c([N+](=O)[O-])n1 | > 100 µM (inactive) | > 100 | > 95 µM (inactive) | > 95 | > 95
CN(C)/N=C/c1ccc(Sc2ccc([N+](=O)[O-])cc2[N+](=O)[O-])o1 | inactive | 85.7 | > 95 µM (inactive) | > 95 | > 95
O=C(Nc1ccc(N2CCOCC2)cc1)c1cc(-n2cnnc2)ccc1Cl | > 100 µM (inactive) | > 100 | > 95 µM (inactive) | > 95 | > 95
Cc1ccc(C(=O)O)cc1NC(=O)Nc1cccc2ccccc12 | > 100 µM (inactive) | > 100 | > 95 µM (inactive) | > 95 | > 95
COc1ccc(CN2C(=O)c3ccccc3C2=O)cc1C(=O)Nc1ccccc1N1CCOCC1 | > 100 µM (inactive) | > 100 | > 95 µM (inactive) | > 95 | > 95
CC1CCN(C(=O)CSc2nncn2C)CC1 | > 100 µM (inactive) | > 100 | > 95 µM (inactive) | > 95 | > 95
CC(=O)Nc1ccc(Oc2cc(C#N)c(C#N)cc2N2CCOCC2)cc1 | > 100 µM (inactive) | > 100 | > 95 µM (inactive) | > 95 | > 95
Cc1ccc2c(c1)C(c1ccncc1)=NNC(c1ccc(F)cc1)=N2 | > 100 µM (inactive) | > 100 | > 95 µM (inactive) | > 95 | > 95
CCOC(=O)C1(O)CC(C)=NN1C(=O)c1cccc(Br)c1 (stereo not given) | > 100 µM (inactive) | > 100 | > 95 µM (inactive) | > 95 | > 95
O=C(O)c1ccccc1SCC(=O)N1CCCCC1 | > 100 µM (inactive) | > 100 | > 95 µM (inactive) | > 95 | > 95
CC(=O)/C(=N\Nc1ccc(Cl)cc1Cl)Sc1cccc2cccnc12 | > 100 µM (inactive) | > 100 | > 95 µM (inactive) | > 95 | > 95
CCC(=O)Nc1cc2c3c(c1)CCC(=O)N3CCC2 | 13.8 µM | 13.8 | > 95 µM (inactive) | > 95 | > 95
Cc1ccc(C(=O)N/C(=C\c2ccc(-c3ccccc3[N+](=O)[O-])o2)C(=O)NCCCN2CCOCC2)cc1 | > 100 µM (inactive) | > 100 | > 95 µM (inactive) | > 95 | > 95
C[C@@H](C(=O)Nc1cccnc1)n1c(=O)[nH]c2ccccc2c1=O | > 100 µM (inactive) | > 100 | > 95 µM (inactive) | > 95 | > 95
CC(=O)OC1CC[C@]2(C#N)[C@H]3CC[C@]4(C)[C@H](C5C=CC(=O)O5)CCC4(O)C3CCC2(O)C1 (stereo not given in full) | > 100 µM (inactive) | > 100 | > 95 µM (inactive) | > 95 | > 95
C/C(=N\N=c1/sc2ccccc2n1C)c1ccccn1 | > 100 µM (inactive) | > 100 | > 95 µM (inactive) | > 95 | > 95
Cc1ccc(COn2c(-c3ccc(Cl)cc3Cl)nc3ncccc32)cc1 | > 100 µM (inactive) | > 100 | > 95 µM (inactive) | > 95 | > 95
CCN(CCCNC(=O)CNC(=O)c1nn(-c2ccc(OC)cc2OC)c(=O)c2ccccc12)c1cccc(C)c1 | > 100 µM (inactive) | > 100 | > 95 µM (inactive) | > 95 | > 95
COC(=O)n1c(=O)oc2ccccc21 | > 100 µM (inactive) | > 100 | > 95 µM (inactive) | > 95 | > 95
Cn1cccc1C1Nc2ccccc2NC2=C1C(=O)CC(C)(C)C2 (stereo not given) | > 100 µM (inactive) | > 100 | > 95 µM (inactive) | > 95 | > 95
O=Cc1ccc(-c2ccccc2C(=O)O)o1 | > 100 µM (inactive) | > 100 | > 95 µM (inactive) | > 95 | > 95
CCOC(=O)C1=C(O)C(=O)N(c2ccccc2)C1c1cccc([N+](=O)[O-])c1 (stereo not given) | > 100 µM (inactive) | > 100 | > 95 µM (inactive) | > 95 | > 95

Structure (SMILES) | IC50 (AlphaScreen, mean of runs) | IC50 [1] [µM] | IC50 (FP, mean of runs) | IC50 [2] [µM] | IC50 [3] [µM]
CCC1=C(OC(=O)N(CC)CC)N2C(=O)OC(=NCC(=O)OC)[C@]2(Cc2ccccc2)[C@H]2C1=CC[C@H]1C(=O)N(CC(=O)OC)C(=O)[C@H]12 | inactive | 64.8 | > 95 µM (inactive) | > 95 | > 95
FC(F)(F)c1cc(C(F)(F)F)c2ccc(Oc3ccccc3)nc2n1 | > 100 µM (inactive) | > 100 | > 95 µM (inactive) | > 95 | > 95
Nc1ncnc2[nH]c(=S)[nH]c12 | > 100 µM (inactive) | > 100 | > 95 µM (inactive) | > 95 | > 95
COc1ccc(NC(=O)CN(C)CC(=O)Nc2cccc(F)c2)cc1Cl | inactive | 35.5 | > 95 µM (inactive) | > 95 | > 95
O=C1CCCN1CCCNC(=S)Nc1ccc(Cl)cc1Cl | > 100 µM (inactive) | > 100 | > 95 µM (inactive) | > 95 | > 95
COCCNC(=S)N(CCc1c(C)[nH]c2ccc(F)cc12)Cc1cccs1 | > 100 µM (inactive) | > 100 | > 95 µM (inactive) | > 95 | > 95
Cc1ccc(Cl)cc1N1CCN(C(=O)c2cccc3c(=O)c(C)c(-c4ccccc4)oc23)CC1 | > 100 µM (inactive) | > 100 | inactive | 26.6 | > 95
Cc1ccc(NC(=S)N2CCN(Cc3ccccc3)CC2)cc1 | > 100 µM (inactive) | > 100 | > 95 µM (inactive) | > 95 | > 95
CCCNC(=O)[C@H]1N2C(=O)c3c(ccc(OC)c3OC)C2SC1(C)C (stereo not given in full) | inactive | 62.5 | > 95 µM (inactive) | > 95 | > 95
NC(=O)C(c1ccc(Cl)cc1Cl)c1ncc(C(F)(F)F)cc1Cl (stereo not given) | > 100 µM (inactive) | > 100 | > 95 µM (inactive) | > 95 | > 95
CC(C)(C)C(=O)COC(=O)c1cc(-c2ccncc2)nc2ccccc12 | > 100 µM (inactive) | > 100 | inactive | > 95 | 40.5
CCCCCCCN1C(Nc2ccccc2)=NC[C@@H]1Cc1ccccc1 | > 100 µM (inactive) | > 100 | > 95 µM (inactive) | > 95 | > 95
N#CC(C#N)=Cc1cc2ccccc2nc1N1CCCCC1 | > 100 µM (inactive) | > 100 | > 95 µM (inactive) | > 95 | > 95
c1cc(CNc2ccc3c(c2)OCO3)ccn1 | > 100 µM (inactive) | > 100 | > 95 µM (inactive) | > 95 | > 95
O=C(COc1ccc(S(=O)(=O)N2CCCC2)cc1)Nc1ccc2c(c1)OCCO2 | > 100 µM (inactive) | > 100 | > 95 µM (inactive) | > 95 | > 95
COc1cc(OC)nc(NC(=O)COC(=O)c2cccc(Cl)c2)n1 | inactive | 27.1 | > 95 µM (inactive) | > 95 | > 95
Cc1cnc(C(=O)OCC(=O)Nc2sc3c(c2C#N)CCC3)cn1 | > 100 µM (inactive) | > 100 | > 95 µM (inactive) | > 95 | > 95
Cc1ccccc1Oc1ccc2c(c1)[C@@H]1C[C@H](N(C)C(=O)Nc3cc(Cl)cc(Cl)c3)[C@H]([C@H](C)O)C(=O)N1CC2 | 12.3 µM | 12.3 | > 95 µM (inactive) | > 95 | > 95
Cc1cc(N/C(=N/S(=O)(=O)c2cc(F)ccc2F)c2ccccc2)n(-c2ccccc2)n1 | > 100 µM (inactive) | > 100 | > 95 µM (inactive) | > 95 | > 95
CCN(c1ccccc1)S(=O)(=O)c1ccc(C(=O)N(CCCN(C)C)c2nc3cc4c(cc3s2)OCO4)cc1 | inactive | 37.1 | > 95 µM (inactive) | > 95 | > 95
Fc1cnc(N2CCOCC2)nc1N1CCOCC1 | > 100 µM (inactive) | > 100 | > 95 µM (inactive) | > 95 | > 95
O=C(CSc1nnc(Cc2ccccc2)n1Cc1ccccc1)NCc1ccco1 | > 100 µM (inactive) | > 100 | > 95 µM (inactive) | > 95 | > 95
